Reference: US11685726B2, “Pharmaceutical compositions of 6-(2-(2H-tetrazol-5-yl)ethyl)-6-fluorodecahydroisoquinoline-3-carboxylic acid and ester derivatives thereof” (Sea Pharmaceuticals LLC, priority 2020, dated 2023)
Each block holds one molecule with its values, some of them ahead of it.

Legend:
[1] = tested on: 6 Hz psychomotor seizure model in mice; experiment: 6 Hz psychomotor seizure model in mice; format: in vivo, mouse; conditions: DMC
Text: Adult male Carworth Farms (CF-1) mice (25-35 g) or young male Sprague-Dawley (SD) rats (100-150 g) were obtained from Charles River Laboratories Inc (Wilmington Mass. USA). CF1 mice were typically used for the 6 Hz psychomotor seizure model (6 Hz model described in the section below) but could also be used for the Maximal electroshock seizure (MES) model if performed in mice (Maximal electroshock seizure model described in the section below). SD rats were typically used for MES model but could also be used for 6 Hz psychomotor model if performed in rats. Animals were allowed free access to food and water, except during testing periods. After delivery from supplier lab to the in vivo pharmacology testing lab, animals were allowed sufficient time to acclimate to housing conditions prior to testing. Animals were housed in plastic cages in rooms with controlled humidity, ventilation, and lighting (12 hours lights on and 12 hours darkness). The animals were housed and fed in a manner consistent with the recommendations in the “Guide for Care and Use of Laboratory Animals” (National Research Council), and in accordance with guidelines set by an Institutional Animal Care and Use Committee (IACUC). Animal experiments were conducted in a manner consistent with Animal Research: Reporting of In Vivo Experiments (ARRIVE) guidelines (UK) and were approved by an IACUC. Test compounds or respective vehicle (placebo) were administered using an optimal fluid volume-to-body fluid ratio. Solutions or suspensions of test compounds, reference compounds or vehicles were administered to mice or rats in a volume of 0.01 mL/g body weight (mice) or 0.004 mL/g body weight (rats) by subcutaneous (s.c.) injection, intraperitoneal (i.p.) injection or by oral gavage (p.o.) unless otherwise indicated. Reference drug Levetiracetam or vehicle was administered by intraperitoneal (i.p.) injection.
Mice are given a topical anesthetic on the cornea of each eye prior to placement of corneal electrodes. 6 Hz psychomotor seizures were induced in mice (usually 8 animals per group) using electrical stimulation via corneal electrodes (6 Hz, 0.2 millisecond rectangular pulse, 3 second duration at 22 mA using a Grass 48 stimulator instrument as described in Barton M E et al 2001. Epilepsy Res 47:217-227). Prior to placement of corneal electrodes for electrical stimulation 0.5% tetracaine in saline (Sigma) drops were applied to each eye. Seizures and behaviors that arise from the electrical stimulus in the 6 Hz model include a minor clonic seizure phase followed by stereotyped automatistic behaviors including stun, forelimb clonus, twitching of the vibrissae and Straub-tail. […] Animals not presenting any of these behaviors were considered “protected” from seizures. This serves as a screen for in vivo pharmacological activity of test articles or reference anti-epilepsy drugs and defines anti-seizure activity as shown in several publications [Barton M E et al. 2001. Epilepsy Res. 47:217-227; Barton M E et al. 2003 Epilepsy Res. 56:17-26; Brown W C et al. 1953. J Pharmacol Exp Ther 107:273-283. Metcalf C S et al. 2017a. Epilepsia 58:484-493.; Metcalf C S et al. 2017c. Epilepsia 58:239-246.
Unless otherwise indicated pretreatment times of mice or rats were typically 0.5 hours for respective vehicle, Compounds 1, 3, 4, 6 or other compounds administered by subcutaneous or intraperitoneal route (unless other times indicated). A pretreatment time of 1 hour was used for Compounds 3, 4, 6 or other compounds administered by oral route unless other times indicated. Test compounds or respective vehicles were tested in some cases at other pretreatment times as indicated. A median effective dose (ED50) and 95% confidence interval (CI) were calculated using a Prism (Graphpad software). […]

[2] = tested on: NMDA receptor; experiment: Whole cell patch-clamp recording of NMDA induced currents in pyramidal neurons of rat brain prefrontal cortex slices; format: cell-based; conditions: 30 μM; rat brain slice PFC pyramidal neurons; n=4
Experimental: (§1) Additionally biological activity of compounds as antagonists of AMPA receptors or NMDA receptors (also called ionotropic glutamate-gated ion channels) were conducted using ex vivo functional electrophysiological assays of pyramidal neurons in slices of rat brain prefrontal cortex. Effects of test compounds cf. reference compounds were studied by whole cell patch-clamp electrophysiology recordings of s-AMPA-induced currents or NMDA-induced currents, respectively, using rat brain slice prefrontal cortex (layer V) pyramidal neurons.
Male Sprague Dawley rats were supplied by Charles River Laboratories (Wilmington, Mass. USA) and were housed 4 per cage within a temperature (20.5-23.5° C.) and humidity (30-80%) controlled environment on a 12 hour light/dark cycle with access to food (Teklad Global Soy Protein, Cat. No. T.2920X10, Envigo, Indianapolis, Ind., USA) and water ad libitum. […]
(§2) All test compound experiments were carried out in the voltage-clamp recording configuration of the whole cell patch-clamp technique and all recordings performed at a holding potential of −60 mV. Recordings were monitored on a Dell personal computer (PC) running Axon pClamp software (Molecular Devices, Sunnyvale, Calif., USA) and digitized at 10 kHz. […]

[3] = tested on: AMPA receptor; experiment: Whole cell patch-clamp recording of s-AMPA induced currents in pyramidal neurons of rat brain prefrontal cortex slices; format: cell-based; conditions: rat brain slice PFC pyramidal neurons; n=4 to 5 experiments per concentration; read-out: IC50 of inhibition of peak amplitude responses to 20 μM s-AMPA
Experimental: as §1
Male Sprague Dawley rats were supplied by Charles River Laboratories (Wilmington, Mass. USA) and were housed 4 per cage within a temperature (20.5-23.5° C.) and humidity (30-80%) controlled environment on a 12 hour light/dark cycle with access to food (Teklad Global Soy Protein, Cat. No. T.2920X10, Envigo, Indianapolis, Ind., USA) and water ad libitum. At 4-6 weeks of age rats were terminally anaesthetized using isofluorane [(1-chloro-2,2,2-trifluoroethyl difluoromethyl ether) supplied by Baxter Healthcare Corp, Deerfield, Ill., USA], and decapitated. The brain was removed and 300 μm thick coronal prefrontal cortex (PFC) or sagittal hippocampal slices were sectioned using a Vibratome microtome. After brain removal, and throughout slicing, the tissue was submerged in ice cold […] cerebrospinal fluid (aCSF). Once slices were cut, they were transferred to a beaker containing aCSF and left at room temperature for a minimum of 1 hour before commencing electrophysiological recordings. After this period, individual slices were transferred to a recording chamber continuously perfused with aCSF at a rate of 4-6 mL/min before commencing experiment protocols. aCSF composition (in mM): NaCl, 127; KCl, 1.9; KH2PO4, 1.2; CaCl2), 2.4; MgCl2, 1.3; NaHCO3, 26; D-glucose, 10; in water equilibrated with 95% Oxygen gas-5% CO2 gas (reagent suppliers listed below). Experiments investigating NMDA currents had aCSF supplemented with 10 μM glycine (reagents suppliers listed below). All experiments were conducted following protocols with the approval of an Institutional Animal Care and Use Committee (IACUC).
Whole cell patch-clamp recordings were performed from Layer V prefrontal cortex pyramidal neurons at room temperature using the ‘visualized’ version of the patch-clamp technique. […]
as §2

Structure (SMILES): CCOC(=O)[C@@H]1C[C@H]2C[C@@](F)(CCc3nnn[nH]3)CC[C@H]2CN1 [Compound 3, ethyl (3S,4aS,6S,8aR)-6-fluoro-6-[2-(1H-1,2,3,4-tetrazol-5-yl)ethyl]-decahydroisoquinoline-3-carboxylate]
6 Hz Test Results (# mice protected from seizure/# mice tested) ([1]; 13 mg/kg p.o., 1 hour): 5/8
6 Hz Test Results (# mice protected from seizure/# mice tested) ([1]; 13 mg/kg s.c., 0.5 hours): 8/8

Structure (SMILES): CCC(CC)COC(=O)[C@@H]1C[C@H]2C[C@@](F)(CCc3nnn[nH]3)CC[C@H]2CN1 [Compound 4, 2-ethylbutyl (3S,4aS,6S,8aR)-6-fluoro-6-[2-(1H-1,2,3,4-tetrazol-5-yl)ethyl]-decahydroisoquinoline-3-carboxylate]
6 Hz Test Results (# mice protected from seizure/# mice tested) ([1]; 13 mg/kg p.o., 1 hour): 6/7
6 Hz Test Results (# mice protected from seizure/# mice tested) ([1]; 13 mg/kg s.c., 0.5 hours): 8/8

Structure (SMILES): O=C(OC1CCCCC1)[C@@H]1C[C@H]2C[C@@](F)(CCc3nn[nH]n3)CC[C@H]2CN1 [Compound 6, cyclohexyl (3S,4aS,6S,8aR)-6-fluoro-6-[2-(1H-1,2,3,4-tetrazol-5-yl)ethyl]-decahydroisoquinoline-3-carboxylate]
6 Hz Test Results (# mice protected from seizure/# mice tested) ([1]; 13 mg/kg p.o., 1 hour): 8/8

IC50 [3]: 481 nM
Structure (SMILES): O=C(O)[C@@H]1C[C@H]2C[C@@H](CCc3nn[nH]n3)CC[C@H]2CN1 [Tezampanel, reference compound]
inhibition of peak amplitude responses to 50 μM NMDA induced currents [2]: 40%+/−2%
